In general, EC50 refers to the concentration giving half of the maximal effect. High values mean lower potency in that assay, low ones higher potency in that assay.

This assay addresses T1, hURAT1 Transporter (Homo sapiens, UniProt Q96S37).
T1 construct: Full-length human URAT1 gene (SLC22A12) was subcloned from plasmid pCMV6-XL5
T1 sequence (Q96S37 1-553): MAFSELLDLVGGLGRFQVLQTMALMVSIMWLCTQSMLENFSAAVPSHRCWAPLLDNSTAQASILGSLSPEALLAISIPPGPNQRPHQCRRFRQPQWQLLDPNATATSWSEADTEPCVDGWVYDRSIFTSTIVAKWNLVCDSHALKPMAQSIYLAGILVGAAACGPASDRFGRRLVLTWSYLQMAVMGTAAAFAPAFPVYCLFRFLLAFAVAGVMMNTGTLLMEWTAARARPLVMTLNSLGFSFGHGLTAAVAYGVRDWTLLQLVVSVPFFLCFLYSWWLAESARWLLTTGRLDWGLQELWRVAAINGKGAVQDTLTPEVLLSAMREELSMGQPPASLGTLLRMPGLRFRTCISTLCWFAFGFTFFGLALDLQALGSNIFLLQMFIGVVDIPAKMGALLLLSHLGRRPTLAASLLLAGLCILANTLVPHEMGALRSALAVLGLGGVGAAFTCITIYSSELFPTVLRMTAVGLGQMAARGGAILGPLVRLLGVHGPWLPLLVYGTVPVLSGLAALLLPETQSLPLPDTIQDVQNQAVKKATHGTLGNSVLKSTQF
Description: Uric Acid Uptake Assay. The class given is cell-based. Conditions: HEK293/urat1 cells; C14 Uric Acid 40 μM; 10 minutes at room temperature. An excerpt:
Creation of Stable Cell Lines Expressing hURAT1 Transporter: Full-length human URAT1 gene (SLC22A12) was subcloned from plasmid pCMV6-XL5 (Origene) into eukaryotic expression plasmid pCMV6/Neo (Origene) using Not I restriction sites. Gene sequencing confirmed the sequence of hURAT1 as outlined in Genbank (Accession #NM_144585.2). HEK293 human embryonic kidney cells (ATCC#CRL-1573) were propagated in EMEM tissue culture medium as described by ATCC in an atmosphere of 5% CO2 and 95% air. Transfections of HEK293 cells with the pCMV6/Neo/URAT1 construct were performed using L2000 transfection reagent (Invitrogen) as described by the manufacturer. After 24 h the transfected cells were split into 10 cm tissue culture plates and grown for 1 day after which the medium was replaced with fresh growth medium containing G418 (Gibco) at 0.5 mg/ml final concentration. Drug-resistant colonies were selected after approximately 8 days and then tested for ^14C-uric acid transport activity. The HEK293/urat1 cells are plated on Poly-D-Lysine Coated 96-well Plates at a density of 75,000 cells per well.
Cells were grown overnight (20-26 hours) at 37° C. in an incubator. Plates were allowed to come to room temperature and media was washed out with one wash of […] of Wash Buffer (125 mM Na Gluconate, 10 mM Hepes ph 7.3). Compound or vehicle is added in assay buffer with C14 Uric Acid for a final concentration of 40 μM Uric Acid with a specific activity of 54 mCi/mmol. Assay Buffer is 125 mM Sodium Gluconate, 4.8 mM Potassium Gluconate, 1.2 mM Potassium phosphate, monobasic, 1.2 mM magnesium sulfate, 1.3 mM Ca Gluconate, 5.6 mM Glucose, 25 mM HEPES, pH 7.3. Plates were incubated at room temperature for 10 minutes then washed 3 times with 50 μl Wash Buffer and 3 times with 250 μl Wash Buffer. Microscint 20 Scintillation Fluid was added and plates were incubated overnight at 45° C. to equilibrate. Plates are then read on the TopCount Plate Reader and an EC50 value generated. (See Enomoto et al, Nature, 2002, 417, 447-451 and Anzai et al, J. Biol. Chem., 2004, 279, 45942-45950.).
Compounds prepared as described herein, were examined according to the procedure described above and EC50 values generated. […] (N/A means data not available).
Turning to `Cc1nnc(SCC(=O)O)n1Cc1ccccc1`, the EC50 is greater than 30 µM.

Consider `Cc1nnc(SCC(=O)O)n1-c1ccc2c(c1)OCCO2`, for which the EC50 was greater than 30 µM.

`CCOC(=O)CSc1nncn1-c1ccc(C)c2c1CCCN2` displayed an EC50 greater than 30 µM.

`CCOC(=O)CSc1nncn1-c1c(C)cc(C)c2c1CCCC2` showed an EC50 of 1 to 30 µM.

Compound `CCOC(=O)CSc1nncn1-c1ccc(C)c2c1CCCC2` gave a concentration giving a half-maximal response (EC50) of 1 to 30 µM.

With `Cc1cc(C)c(-n2cnnc2SCC(=O)O)c2c1CCCC2`, the EC50 was greater than 30 µM.

In turn, `Cc1ccc(-n2cnnc2SCC(=O)O)c2c1CCCC2` gave an EC50 greater than 30 µM.

Consider `Cc1ccc(-n2cnnc2SCC(=O)O)c2c1NCCC2`, for which the EC50 is greater than 30 µM.

In turn, `Cc1nnc(SCC(=O)O)n1-c1ccc(N(C)C)c2ccccc12` came in with an EC50 greater than 30 µM.

`Cc1nnc(SCC(=O)O)n1-c1cccc2cccnc12` returned an EC50 greater than 30 µM.

In the case of `Cc1ccc(-n2c(C)nnc2SCC(=O)O)cc1C`, the 50% effective concentration (EC50) was greater than 30 µM.

`Cc1nnc(SCC(=O)O)n1-c1ccccc1Cl` gave an EC50 greater than 30 µM.

Take `Cc1nnc(SCC(=O)O)n1-c1ccc(Oc2ccccc2)cc1`: the EC50 was greater than 30 µM.

`Cc1nnc(SCC(=O)O)n1-c1ccc(C(F)(F)F)cc1` showed an EC50 greater than 30 µM.

As to `Cc1ccc(-n2c(C)nnc2SCC(=O)O)c(C)c1`, the concentration for a half-maximal effect (EC50) was greater than 30 µM.

As to `COc1ccccc1-n1c(C)nnc1SCC(=O)O`, the EC50 is greater than 30 µM.

As to `Cc1cccc(C)c1-n1c(C)nnc1SCC(=O)O`, the concentration giving a half-maximal response (EC50) was greater than 30 µM.

As to `Cc1nnc(SCC(=O)O)n1-c1cc(Cl)ccc1Cl`, the EC50 was greater than 30 µM.

As for `Cc1nnc(SCC(=O)O)n1-c1ccc(C(=O)O)cc1`, the EC50 was greater than 30 µM.

Compound `Cc1nnc(SCC(=O)O)n1-c1cccc(Cl)c1` showed an EC50 greater than 30 µM.

The compound `Cc1nnc(SCC(=O)O)n1-c1ccccc1F` gave an EC50 greater than 30 µM.

On to `Cc1nnc(SCC(=O)O)n1-c1ccccc1C(F)(F)F`, for which the EC50 is greater than 30 µM.

`CCOC(=O)CCCSc1nnc(N)n1-c1ccc(C2CC2)c2ccccc12` had an EC50 of 1 to 30 µM.

`Nc1nnc(SCCCC(=O)O)n1-c1ccc(C2CC2)c2ccccc12`: the EC50 was in the range of 1 to 30 µM.

For the compound `CCOC(=O)CSc1nnc(N)n1-c1ccc(C2CC2)c2ccccc12`, the EC50 was greater than 30 µM.

As for `Nc1nnc(SCC(=O)O)n1-c1ccc(C2CC2)c2ccccc12`, the EC50 is 1 to 30 µM.

On to `CCOC(=O)C(C)Sc1nnc(N)n1-c1ccc(C2CC2)c2ccccc12` (stereo not shown), for which the EC50 is 1 to 30 µM.

Compound `CC(Sc1nnc(N)n1-c1ccc(C2CC2)c2ccccc12)C(=O)O` (stereo not shown) had a half-maximal effective concentration (EC50) of 1 to 30 µM.

Compound `CCCSc1nnc(N)n1-c1ccc(C2CC2)c2ccccc12` came in with an EC50 greater than 30 µM.

Take `CCc1ccc(-n2c(CF)nnc2SCC(=O)O)c2ccccc12`: the EC50 lay in the range of 1 to 30 µM.

`Cc1ccc(-n2c(SCC(=O)O)nnc2C(F)F)c2ccccc12` displayed an EC50 of 1 to 30 µM.

`Cc1ccc(-n2c(SCC(N)=O)nnc2C(F)F)c2c1CCCC2` yielded an EC50 of 1 to 30 µM.

On to `CC(C)(C)c1ccc(-n2c(SCC(=O)O)nnc2C(F)F)c(Cl)c1`, for which the EC50 is greater than 30 µM.

Consider `O=C(O)CSc1nnc(C(F)F)n1-c1ccc(C2CC2)c2ccccc12`, for which the EC50 fell in the range of 1 to 30 µM.

As for `COc1ccc(Cl)c(-n2c(SCC(=O)O)nnc2C(F)F)c1`, the EC50 was greater than 30 µM.

In turn, `CCOC(=O)CSc1nnc(C(F)F)n1-c1ccc(OC)c2c1CCCC2` registered a 50% effective concentration (EC50) greater than 30 µM.

`COc1ccc(-n2c(SCC(=O)O)nnc2C(F)F)c2c1CCCC2`: the EC50 lay in the range of 1 to 30 µM.

Regarding `CCOC(=O)CSc1nnc(C(F)F)n1-c1ccc(C)c2c1CCCN2`, the EC50 is greater than 30 µM.

`CCOC(=O)CSc1nnc(C(F)F)n1-c1c(C)cc(C)c2ccccc12` registered an EC50 greater than 30 µM.

`Cc1cc(C)c2ccccc2c1-n1c(SCC(=O)O)nnc1C(F)F` gave an EC50 of 1 to 30 µM.

Turning to `Cc1ccc(-n2c(SCC(=O)O)nnc2C(F)F)c2c1NCCC2`, the EC50 is greater than 30 µM.

In the case of `O=C(O)CSc1nnc(C(F)(F)F)n1-c1cccc2ccccc12`, the EC50 lay in the range of 1 to 30 µM.

Turning to `CCOC(=O)CSc1nnc(C(F)(F)F)n1-c1ccc(OC)c2c1CCCC2`, the EC50 is greater than 30 µM.

Compound `CCOC(=O)CSc1nnc(C(F)(F)F)n1-c1ccc(C)c2c1CCCC2` yielded an EC50 of 1 to 30 µM.

Regarding `Cc1ccc(-n2c(SCC(=O)O)nnc2C(F)(F)F)c2c1CCCC2`, the EC50 was 0.001 to 1 µM.

`COc1ccc(-n2c(SCC(=O)O)nnc2C(F)(F)F)c2c1CCCC2` returned an EC50 of 1 to 30 µM.

In the case of `Cc1ccc(-n2c(Br)nnc2SCC(=O)O)c2ccccc12`, the EC50 fell in the range of 1 to 30 µM.

In the case of `O=C(O)CSc1nnc(Br)n1-c1cccc2ccccc12`, the half-maximal effective concentration (EC50) fell in the range of 1 to 30 µM.

For the compound `CCc1ccc(-n2c(Br)nnc2SCC(=O)OC)c2ccccc12`, the EC50 fell in the range of 0.001 to 1 µM.

`CCc1ccc(-n2c(Br)nnc2SCC(=O)O)c2ccccc12` had an EC50 of 0.001 to 1 µM.

`CCOC(=O)CCCSc1nnc(Br)n1-c1ccc(C2CC2)c2ccccc12`: the EC50 is 1 to 30 µM.

Consider `CCOC(=O)CSc1nnc(Br)n1-c1ccc(C2CC2)c2ccccc12`, for which the EC50 lay in the range of 0.001 to 1 µM.

In turn, `O=C(O)CCCSc1nnc(Br)n1-c1ccc(C2CC2)c2ccccc12` registered an EC50 of 0.001 to 1 µM.

The compound `COc1ccc2c(C3CC3)ccc(-n3c(Br)nnc3SCC(=O)O)c2c1` came in with an EC50 of 1 to 30 µM.

`O=C(O)CSc1nnc(Br)n1-c1cccc2c(OCC3CC3)cccc12` displayed an EC50 greater than 30 µM.

The compound `CC(C)(C)c1ccc(-n2c(Br)nnc2SCC(=O)O)c(Cl)c1` yielded an EC50 greater than 30 µM.

Consider `COc1ccc2c(Br)ccc(-n3c(Br)nnc3SCC(=O)O)c2c1`, for which the EC50 is 1 to 30 µM.

Turning to `CCc1ccc(-n2c(Br)nnc2SCC(=O)O)c2cc(OC)ccc12`, the EC50 was in the range of 1 to 30 µM.

In turn, `COc1ccc(Cl)c(-n2c(Br)nnc2SCC(=O)O)c1` showed an EC50 greater than 30 µM.

On to `O=C(O)CSc1nnc(Br)n1-c1cc(C(F)(F)F)ccc1Cl`, for which the EC50 was greater than 30 µM.

`CCOC(=O)C(C)Sc1nnc(Br)n1-c1ccc(C2CC2)c2ccccc12` (stereo not shown) had an EC50 of 1 to 30 µM.

Compound `CC(Sc1nnc(Br)n1-c1ccc(C2CC2)c2ccccc12)C(=O)O` (stereo not shown) displayed an EC50 of 0.001 to 1 µM.

`CCCSc1nnc(Br)n1-c1ccc(C2CC2)c2ccccc12` had an EC50 of 1 to 30 µM.

`CC(C)(C)OC(=O)CSc1nnc(Br)n1-c1ccc(C2CC2)c2ccccc12` registered an EC50 greater than 30 µM.

Compound `CCOC(=O)C(C)(C)Sc1nnc(Br)n1-c1ccc(CC)c2ccccc12` gave an EC50 of 0.001 to 1 µM.

The compound `O=C(O)CSc1nnc(-c2ccccc2)n1-c1ccc(C2CC2)c2ccccc12` came in with an EC50 of 1 to 30 µM.

`CCOC(=O)CSc1nnc(-c2ccccc2)n1-c1ccc(C2CC2)c2ccccc12` gave an EC50 of 1 to 30 µM.

Consider `CCc1ccc(-n2c(Br)nnc2SC(C)(C)C(=O)O)c2ccccc12` [2-(5-bromo-4-(4-ethylnaphthalen-1-yl)-4H-1,2,4-triazol-3-ylthio)-2-methylpropanoic acid], for which the EC50 was 0.001 to 1 µM.

Consider `Cc1cc(C)c(-n2c(SCC(=O)O)nnc2C(F)(F)F)c2c1CCCC2` [Example 1A, 2-(4-(2,4-Dimethyl-5,6,7,8-tetrahydronaphthalen-1-yl)-5-(trifluoromethyl)-4H-1,2,4-triazol-3-ylthio)acetic acid], for which the EC50 lay in the range of 1 to 30 µM.

The compound `Cc1ccc2c(C)ccc(-n3cnnc3SCC(=O)O)c2c1` [Example 2, 2-(4-(4,7-Dimethylnaphthalen-1-yl)-4H-1,2,4-triazol-3-ylthio)acetic acid] returned an EC50 greater than 30 µM.

Values taken from patent US8633232B2, “Compounds, compositions and methods of using same for modulating uric acid levels” (Ardea Biosciences, Inc., priority 2008, dated 2014).
